{
  "source": "patent US20220348590A1",
  "about": "“CYCLOOXYGENASE-2 INHIBITORS AND USES THEREOF” (The Board Institute, Inc., priority 2019, published 2022)",
  "key": {"ovine COX-1 (oCOX-1)": {"target": "T1, ovine COX-1 (oCOX-1) (Ovis aries, UniProt P05979)", "T1 construct": "purchased Cayman Chemicals (Ann Arbor, Mich.)", "T1 sequence (P05979 25-600)": "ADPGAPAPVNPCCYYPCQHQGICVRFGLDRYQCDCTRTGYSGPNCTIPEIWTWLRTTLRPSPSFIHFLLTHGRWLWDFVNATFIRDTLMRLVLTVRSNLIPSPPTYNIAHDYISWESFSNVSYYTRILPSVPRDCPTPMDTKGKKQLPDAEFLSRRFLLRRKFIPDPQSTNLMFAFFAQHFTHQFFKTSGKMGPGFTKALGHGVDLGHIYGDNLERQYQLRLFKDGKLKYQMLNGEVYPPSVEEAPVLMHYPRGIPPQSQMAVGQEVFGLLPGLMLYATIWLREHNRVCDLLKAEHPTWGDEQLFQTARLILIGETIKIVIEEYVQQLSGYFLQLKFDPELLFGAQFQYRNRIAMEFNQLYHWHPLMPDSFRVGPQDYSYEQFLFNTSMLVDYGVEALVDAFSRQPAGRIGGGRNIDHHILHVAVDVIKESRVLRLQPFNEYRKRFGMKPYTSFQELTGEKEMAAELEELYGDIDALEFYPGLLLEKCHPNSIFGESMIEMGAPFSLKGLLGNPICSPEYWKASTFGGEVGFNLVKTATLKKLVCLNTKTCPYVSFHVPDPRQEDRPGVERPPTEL", "experiment": "LCMS-based COX-1 enzymatic inhibition assay (PGE2 quantification)", "assay_type": "biochemical", "details": "10 minutes; for IC50: average", "how_it_was_run": "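PGE2 formed from arachidonic acid (final 5 μM, 2 min) was measured by LC-MS-MS against DMSO controls. Enzyme (oCOX-1 0.1 μg or hCOX2 0.2 μg) with hematin/epinephrine cofactors at pH 8.0 was given 10 min at 37 °C with compound first. Twelve-point curves run three times gave IC50.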"}, "[1]": {"experiment": "Human Microsome Stability", "assay_type": "in vitro ADME", "details": "human microsomes"}, "PBS Solubility (no DMSO)": {"experiment": "PBS Solubility (no DMSO)", "assay_type": "physicochemical", "details": "aqueous buffer, thermodynamic from solid, average"}, "[2]": {"experiment": "Mouse Plasma Protein Stability (% Remaining)", "assay_type": "in vitro ADME", "details": "average"}, "[3]": {"experiment": "mouse plasma protein binding (PPB) assay", "assay_type": "in vitro ADME", "details": "average, read-out: Mouse Plasma Protein Binding % Bound Avg (converted)", "how_it_was_run": "(§1)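 Non-specific binding is assessed by in vitro protein binding experiments that yield the free fraction. Species and matrix differ by assay: mouse brain for BPB, and mouse, rat and human plasma for PPB.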"}, "MDR1": {"system": "MDR1", "experiment": "MDR1-MDCKII permeability and efflux", "assay_type": "in vitro ADME", "details": "dog, MDCK-MDR1; for Papp A→B: read-out: MDR1-MCKII Papp A-B; for Papp B→A: read-out: MDR1-MCKII Papp B-A"}, "[4]": {"experiment": "mouse brain protein binding (BPB) assay", "assay_type": "in vitro ADME", "experimental": "(§2) We have adapted a previously reported cyclooxygenase enzymatic assay utilizing LCMS quantification of PGE2 as the product of COX-1 and COX2 catalyzed conversion of arachidonic acid to evaluate the binding properties of newly synthesized ligands [Cao, 2011]. These optimized and miniaturized (384-well plates) LCMS-based COX-1 and COX2 enzymatic assays enabled us to quickly evaluate newly synthesized ligands for COX2 binding affinity and selectivity vs COX-1. Using a shorter ligand-enzyme incubation time in the LCMS assay (2 minutes vs 10 minutes) also permitted us to prioritize ligands with faster binding kinetics. Considering the relatively slow on-rate kinetics of known coxibs, due to their 3-step binding mechanism [Marnett, 2009], we believe that optimizing this critical parameter will be key to the successful development of a COX2 PET tracer. Using these enzymatic assays, we have evaluated>200 newly synthesized ligands against COX2 and >20 ligands against COX-1. Another critical property necessary for a good PET radiotracer is to have low non-specific binding (NSB) to increase the free fraction and maximize the signal to noise ratio. This property can be evaluated using in-vitro protein binding assays, and we have now evaluated>50 newly synthesized ligands in mouse, rat and human plasma protein binding (PPB) assays as well as >15 ligands in a mouse brain protein binding (BPB) assay."}, "Rat Microsome Stability": {"experiment": "Rat Microsome Stability", "assay_type": "in vitro ADME", "details": "rat microsomes"}, "[5]": {"experiment": "rat plasma protein binding (PPB) assay", "assay_type": "in vitro ADME", "details": "average, read-out: Rat Plasma Protein Binding % Bound Avg (converted)", "how_it_was_run": "as §1"}, "[6]": {"experiment": "in-vitro protein binding: free fraction / fraction unbound, matrix and species not given", "assay_type": "in vitro ADME", "details": "compared to MC1; comparator not always stated", "experimental": "as §2"}, "[7]": {"details": "readout pge2/pge2d4 area ratio, read-out: COX1 10 minutes pge2/pge2d4 area ratio Avg. IC50"}},
  "note": "Like-named read-outs stand apart in the source and are kept apart here.",
  "data": [
    {"smiles": "CS(=O)(=O)c1ccc(-c2cccc(NCc3ccoc3)n2)cc1", "note": "[Compound 47, N-(furan-3-ylmethyl)-6-(4-(methylsulfonyl)phenyl)pyridin-2-amine]", "values": [
      {"measurement": "COX1 10 minutes pge2/pge2d4 area ratio Avg. LLE", "setting": "ovine COX-1 (oCOX-1); readout pge2/pge2d4 area ratio, average LLE", "result": 1.461},
      {"measurement": "IC50", "setting": "ovine COX-1 (oCOX-1); [7]", "result": 38.8, "unit": "µM"},
      {"measurement": "Human Microsome Stability % Remaining Avg", "setting": "[1]", "result": 16, "unit": "%"},
      {"measurement": "solubility", "setting": "PBS Solubility (no DMSO)", "result": 88, "unit": "µM"},
      {"measurement": "Mouse Plasma Protein Stability % Remaining Avg", "setting": "[2]", "result": 107.5, "unit": "%"},
      {"measurement": "fraction unbound", "setting": "[3]", "result": 0.07},
      {"measurement": "efflux ratio", "setting": "MDR1", "result": 0.9},
      {"measurement": "Papp A→B", "setting": "MDR1", "result": 50.8, "unit": "×10⁻⁶ cm/s"},
      {"measurement": "Papp B→A", "setting": "MDR1", "result": 47.2, "unit": "×10⁻⁶ cm/s"},
      {"measurement": "fraction unbound", "setting": "[4]", "result": 0.022},
      {"measurement": "Rat Microsome Stability % Remaining Avg", "setting": "Rat Microsome Stability", "result": 8.2, "unit": "%"},
      {"measurement": "fraction unbound", "setting": "[5]", "result": 0.068},
      {"measurement": "improvement in free fraction (fraction unbound)", "setting": "[6]", "result": "~4", "unit": "fold"}
    ]},
    {"smiles": "CS(=O)(=O)c1ccc(-c2cccc(NCc3ccco3)n2)cc1", "note": "[Compound 36]", "values": [
      {"measurement": "IC50", "setting": "ovine COX-1 (oCOX-1); [7]", "result": 36.4, "unit": "µM"},
      {"measurement": "IC50", "setting": "ovine COX-1 (oCOX-1); readout pge2 area (counts), read-out: COX1 10 minutes pge2 area (counts) Avg. IC50", "result": 29.7, "unit": "µM"},
      {"measurement": "Human Microsome Stability % Remaining Avg", "setting": "[1]", "result": 17, "unit": "%"},
      {"measurement": "solubility", "setting": "PBS Solubility (no DMSO)", "result": 27, "unit": "µM"},
      {"measurement": "Mouse Plasma Protein Stability % Remaining Avg", "setting": "[2]", "result": 106, "unit": "%"},
      {"measurement": "fraction unbound", "setting": "[3]", "result": 0.118},
      {"measurement": "efflux ratio", "setting": "MDR1", "result": 1},
      {"measurement": "Papp A→B", "setting": "MDR1", "result": 68.5, "unit": "×10⁻⁶ cm/s"},
      {"measurement": "Papp B→A", "setting": "MDR1", "result": 67.9, "unit": "×10⁻⁶ cm/s"},
      {"measurement": "fraction unbound", "setting": "[4]", "result": 0.019},
      {"measurement": "Rat Microsome Stability % Remaining Avg", "setting": "Rat Microsome Stability", "result": 11.6, "unit": "%"},
      {"measurement": "fraction unbound", "setting": "[5]", "result": 0.087},
      {"measurement": "improvement in free fraction (fraction unbound)", "setting": "[6]", "result": "~4", "unit": "fold"}
    ]}
  ]
}
